Data as given in US20120220564A1, “SELECTIVE CALCIUM CHANNEL MODULATORS” (Zalicus Pharmaceuticals Ltd., priority 2009, published 2012).

How the values were obtained:
α1H (CaV 3.2) = target: T1, α1H (CaV 3.2) (Homo sapiens, UniProt O95180); assay: T-type calcium channel block, whole cell patch clamp; assay type: cell-based; conditions: HEK cells, mainly non-inactivated protocol; values above 10,000 nM represented as 10000
T1 construct: expressed in transfected cells; host or cells: HEK 293
Method: (§1) T-type calcium channel blocking activity was assayed in human embryonic kidney cells, HEK 293 (Invitrogen), stably transfected with the T-type calcium channel subunits. Briefly, cells were cultured in Dulbecco's modified eagle medium (DMEM) supplemented with 10% fetal bovine serum, 200 U/ml penicillin, and 0.2 mg/mL streptomycin at 37° C. with 5% CO2. At 85% confluency, cells were split with 0.25% trypsin/1 mM EDTA and plated at 10% confluency on glass coverslips. At 12 hours, the medium was replaced, and the cells stably transfected using a standard calcium phosphate protocol and the appropriate calcium channel cDNA's. Fresh DMEM was supplied, and the cells transferred to 28° C./5% CO2. Cells were incubated for 1 to 2 days prior to whole cell recording.
(§2) Standard patch-clamp techniques were employed to identify blockers of T-type currents. Briefly, previously described HEK cell lines stably expressing human α1G, α1H and α1I T-type channels were used for all the recordings (passage #: 4-20, 37° C., 5% CO2). Whole cell patch clamp experiments were performed using an Axopatch 200B amplifier (Axon Instruments, Burlingame, Calif.) linked to a personal computer equipped with pCLAMP software. Data were analyzed using Clampfit (Axon Instruments) and SigmaPlot 4.0 (Jandel Scientific). To obtain T-type currents, plastic dishes containing semi-confluent cells were positioned on the stage of a ZEISS AXIOVERT S100 microscope after replacing the culture medium with external solution (Table 2). Whole-cell patches were obtained using pipettes (borosilicate glass with filament, O.D.: 1.5 mm, I.D.: 0.86 mm, 10 cm length), fabricated on a SUTTER P-97 puller with resistance values of ˜5 MΩ (Table 3).
(§3) T-type currents were reliably obtained by using two voltage protocols:
(§4) In the non-inactivating protocol, the holding potential is set at −110 mV and with a pre-pulse at −100 mV for 1 second prior to the test pulse at −40 mV for 50 ms. In the inactivation protocol, the pre-pulse is at approximately −85 mV for 1 second, which inactivates about 15% of the T-type channels (Scheme 1).
(§5) Test compounds were dissolved in external solution, 0.1-0.01% DMSO. After ˜10 minutes rest, they were applied by gravity close to the cell using a WPI microfil tubing. The “non-inactivated” pre-pulse was used to examine the resting block of a compound. The “inactivated” protocol was employed to study voltage-dependent block. However, the initial data shown below were mainly obtained using the non-inactivated protocol only. IC50 values are shown for various compounds of the invention in Table 4. […] In Table 4, empty cells indicate that inhibition by the compound was not detected.

α1G (CaV 3.1) = target: T2, α1G (CaV 3.1) (Homo sapiens, UniProt O43497); assay: as above; assay type: cell-based; conditions: HEK cells, mainly non-inactivated protocol; values above 10,000 nM represented as 10000
T2 construct: expressed in transfected cells; host or cells: HEK 293
Method: as §1, §2, §3, §4, §5

[1] = test system: minimal muscular or neurological impairment (rotarod); assay: Mouse rotarod assay; assay type: in vivo, mice
Method: To assess a compound's undesirable side effects (toxicity), animals can be monitored for overt signs of impaired neurological or muscular function. In mice, the rotarod procedure (Dunham and Miya, J. Am. Pharmacol. Assoc. 46:208-209 (1957)) is used to disclose minimal muscular or neurological impairment (MMI). When a mouse is placed on a rod that rotates at a speed of 6 rpm, the animal can maintain its equilibrium for long periods of time. The animal is considered toxic if it falls off this rotating rod three times during a 1-min period.

6 Hz psychomotor seizure = 6 Hz psychomotor seizure model of partial epilepsy; assay type: in vivo, mice; set-up: concentration or dose not given beside the values
Description: Compounds can also be evaluated for the protection against seizures induced by a 6 Hz, 0.2 ms rectangular pulse width of 3 s duration, at a stimulus intensity of 32 mA (CC97) applied to the cornea of male CF1 mice (20-30 g) according to procedures described by Barton et al, “Pharmacological Characterization of the 6 Hz Psychomotor Seizure Model of Partial Epilepsy,” Epilepsy Res. 47(3):217-27 (2001). Seizures are characterised by the expression of one or more of the following behaviours: stun, forelimb clonus, twitching of the vibrissae and Straub-tail immediately following electrical stimulation.

[2] = test system: Rat SNL tactile allodynia; assay: L5/L6 spinal nerve ligation (SNL) Chung pain model, tactile allodynia (von Frey); assay type: in vivo; conditions: for % Antiallodynia (Mean ± SD): 100 mg/kg PO, n = 7-8
Description: The Spinal Nerve Ligation is an animal model representing peripheral nerve injury generating a neuropathic pain syndrome. In this model experimental animals develop the clinical symptoms of tactile allodynia and hyperalgesia. L5/L6 Spinal nerve ligation (SNL) injury was induced using the procedure of Kim and Chung (Kim et al., Pain 50:355-363 (1992)) in male Sprague-Dawley rats (Harlan; Indianapolis, Ind.) weighing 200 to 250 grams.
Anaesthesia was induced with 2% isofluorane in O2 at 2 L/min and maintained with 0.5% isofluorane in O2. Rats were then shaved and aseptically prepared for surgeries. A 2 cm paraspinal incision was made at the level of L4-S2. L4/L5 was exposed by removing the transverse process above the nerves with a small rongeur. The L5 spinal nerve is the larger of the two visible nerves below the transverse process and lies closest to the spine. The L6 spinal nerve is located beneath the corner of the slope bone. A home-made glass Chung rod was used to hook L5 or L6 and a pre-made slip knot of 4.0 silk suture was placed on the tip of the rod just above the nerve and pulled underneath to allow for the tight ligation. The L5 and L6 spinal nerves were tightly ligated distal to the dorsal root ganglion. The incision was closed, and the animals were allowed to recover for 5 days.
Sham control rats underwent the same operation and handling as the experimental animals, but without SNL.
Prior to initiating drug delivery, baseline behavioural testing data is obtained. At selected times after infusion of the Test or Control Article behavioural data can then be collected again.
The assessment of tactile allodynia consisted of measuring the withdrawal threshold of the paw ipsilateral to the site of nerve injury in response to probing with a series of calibrated von Frey filaments (innocuous stimuli). Animals were acclimated to the suspended wire-mesh cages for 30 min before testing. Each von Frey filament was applied perpendicularly to the plantar surface of the ligated paw of rats for 5 sec. A positive response was indicated by a sharp withdrawal of the paw. For rats, the first testing filament is 4.31. Measurements were taken before and after administration of test articles. […] The protocol was repeated until three changes in behaviour were determined (“up and down” method) (Chaplan et al., J. Neurosci. Methods 53:55-63 (1994)). The 50% paw withdrawal threshold was determined as (10^[Xf+kδ])/10,000, where Xf=the value of the last von Frey filament employed, k=Dixon value for the positive/negative pattern, and δ=the logarithmic difference between stimuli. The cut-off values for rats were no less than 0.2 g and no higher than 15 g (5.18 filament); for mice no less than 0.03 g and no higher than 2.34 g (4.56 filament). A significant drop of the paw withdrawal threshold compared to the pre-treatment baseline is considered tactile allodynia.

[3] = test system: Lamina I/II spinal cord neurons; assay: Lamina assay, current-clamp recordings in spinal cord slices; assay type: cell-based, rat; conditions: Lamina I and II neurons
Description: Male Wistar rats (P6 to P9 for voltage-clamp and P15 to P18 for current-clamp recordings) were anaesthetized through intraperitoneal injection of Inactin (Sigma). The spinal cord was then rapidly dissected out and placed in an ice-cold solution protective sucrose solution containing (in mM): 50 sucrose, 92 NaCl, 15 D-Glucose, 26 NaHCO3, 5 KCl, 1.25 NaH2PO4, 0.5 CaCl2, 7 MgSO4, 1 kynurenic acid, and bubbled with 5% CO2/95% O2. The meninges, dura, and dorsal and ventral roots were then removed from the lumbar region of the spinal cord under a dissecting microscope. The “cleaned” lumbar region of the spinal cord was glued to the vibratome stage and immediately immersed in ice cold, bubbled, sucrose solution. For current-clamp recordings, 300 to 350 μm parasagittal slices were cut to preserve the dendritic arbour of lamina I neurons, while 350 to 400 μm transverse slices were prepared for voltage-clamped […] channel recordings. Slices were allowed to recover for 1 hour at 35° C. in Ringer solution containing (in mM): 125 NaCl, 20 D-Glucose, 26 NaHCO3, 3 KCl, 1.25 NaH2PO4, 2 CaCl2, 1 MgCl2, 1 kynurenic acid, 0.1 picrotoxin, bubbled with 5% CO2/95% O2. The slice recovery chamber was then returned to room temperature (20 to 22° C.) and all recordings were performed at this temperature.
Neurons were visualized using IR-DIC optics (Zeiss Axioskop 2 FS plus, Gottingen, Germany), and neurons from lamina I and the outer layer of lamina II were selected based on their location relative to the substantia gelatinosa layer. Neurons were patch-clamped using borosilicate glass patch pipettes with resistances of […] Current-clamp recordings of lamina I/II neurons in the intact slice, the external recording solution was the above Ringer solution, while the internal patch pipette solution contained (in mM): 140 KGluconate, 4 NaCl, 10 HEPES, 1 EGTA, 0.5 MgCl2, 4 MgATP, 0.5 Na2GTP, adjusted to pH 7.2 with 5 M KOH and to 290 mOsm with D-Mannitol (if necessary). […]

T1 sequence (O95180 whole entry): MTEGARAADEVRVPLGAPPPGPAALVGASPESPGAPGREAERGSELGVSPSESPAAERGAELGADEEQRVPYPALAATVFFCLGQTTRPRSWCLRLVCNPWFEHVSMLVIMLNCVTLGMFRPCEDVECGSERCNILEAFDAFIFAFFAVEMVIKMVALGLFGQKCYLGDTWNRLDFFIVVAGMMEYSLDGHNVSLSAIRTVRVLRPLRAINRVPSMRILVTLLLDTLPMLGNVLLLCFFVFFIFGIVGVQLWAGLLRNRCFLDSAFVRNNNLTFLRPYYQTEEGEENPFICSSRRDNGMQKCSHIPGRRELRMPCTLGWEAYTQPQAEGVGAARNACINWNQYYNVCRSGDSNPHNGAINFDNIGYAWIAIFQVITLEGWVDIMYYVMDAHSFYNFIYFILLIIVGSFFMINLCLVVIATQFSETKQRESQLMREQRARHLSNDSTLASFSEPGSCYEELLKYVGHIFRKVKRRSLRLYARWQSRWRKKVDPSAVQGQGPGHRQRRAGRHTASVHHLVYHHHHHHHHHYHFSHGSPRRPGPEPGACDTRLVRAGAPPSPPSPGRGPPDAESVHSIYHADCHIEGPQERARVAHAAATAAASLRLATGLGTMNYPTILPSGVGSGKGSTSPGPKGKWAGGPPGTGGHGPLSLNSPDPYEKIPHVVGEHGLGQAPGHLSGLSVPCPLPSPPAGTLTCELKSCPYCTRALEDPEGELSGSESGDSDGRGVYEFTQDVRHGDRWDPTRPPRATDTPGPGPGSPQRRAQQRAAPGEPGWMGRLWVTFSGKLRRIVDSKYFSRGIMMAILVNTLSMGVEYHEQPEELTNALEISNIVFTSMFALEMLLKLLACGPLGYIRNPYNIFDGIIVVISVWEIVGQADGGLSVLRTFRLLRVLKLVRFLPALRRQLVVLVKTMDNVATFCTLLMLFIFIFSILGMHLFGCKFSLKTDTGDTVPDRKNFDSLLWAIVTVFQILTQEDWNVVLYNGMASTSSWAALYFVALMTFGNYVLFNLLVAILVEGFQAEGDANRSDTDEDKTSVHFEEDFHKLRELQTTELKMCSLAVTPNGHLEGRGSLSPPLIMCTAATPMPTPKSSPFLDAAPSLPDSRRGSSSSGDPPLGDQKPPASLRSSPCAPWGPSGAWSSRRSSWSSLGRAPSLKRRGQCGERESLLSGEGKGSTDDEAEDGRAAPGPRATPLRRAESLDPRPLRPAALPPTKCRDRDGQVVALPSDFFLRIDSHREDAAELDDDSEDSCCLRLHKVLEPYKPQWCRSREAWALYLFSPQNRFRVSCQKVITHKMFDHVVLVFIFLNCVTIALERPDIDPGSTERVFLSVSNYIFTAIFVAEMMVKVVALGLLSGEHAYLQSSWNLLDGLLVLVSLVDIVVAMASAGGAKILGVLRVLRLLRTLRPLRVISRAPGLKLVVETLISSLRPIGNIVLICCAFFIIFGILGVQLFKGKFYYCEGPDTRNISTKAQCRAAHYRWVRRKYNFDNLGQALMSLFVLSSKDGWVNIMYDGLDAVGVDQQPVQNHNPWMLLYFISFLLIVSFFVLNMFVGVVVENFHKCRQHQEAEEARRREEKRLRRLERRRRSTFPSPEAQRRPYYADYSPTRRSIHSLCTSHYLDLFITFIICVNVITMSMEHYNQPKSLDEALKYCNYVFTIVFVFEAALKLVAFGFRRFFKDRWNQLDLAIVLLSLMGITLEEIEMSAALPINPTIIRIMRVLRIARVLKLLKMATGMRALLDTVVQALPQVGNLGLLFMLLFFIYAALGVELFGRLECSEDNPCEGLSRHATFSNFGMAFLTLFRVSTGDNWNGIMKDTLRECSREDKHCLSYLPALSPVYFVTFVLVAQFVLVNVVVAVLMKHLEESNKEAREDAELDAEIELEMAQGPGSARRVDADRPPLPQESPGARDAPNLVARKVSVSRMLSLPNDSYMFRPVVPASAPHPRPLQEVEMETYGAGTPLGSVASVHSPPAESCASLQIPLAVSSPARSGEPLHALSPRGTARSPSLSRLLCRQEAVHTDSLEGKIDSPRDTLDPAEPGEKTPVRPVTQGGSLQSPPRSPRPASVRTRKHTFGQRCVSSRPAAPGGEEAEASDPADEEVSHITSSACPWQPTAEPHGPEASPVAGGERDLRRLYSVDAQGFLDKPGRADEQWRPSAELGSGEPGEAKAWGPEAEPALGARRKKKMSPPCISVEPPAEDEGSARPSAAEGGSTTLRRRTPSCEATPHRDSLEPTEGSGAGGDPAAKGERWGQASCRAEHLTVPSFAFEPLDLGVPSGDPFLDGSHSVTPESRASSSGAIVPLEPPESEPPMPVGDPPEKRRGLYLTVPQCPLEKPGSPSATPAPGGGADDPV
T2 sequence (O43497 whole entry): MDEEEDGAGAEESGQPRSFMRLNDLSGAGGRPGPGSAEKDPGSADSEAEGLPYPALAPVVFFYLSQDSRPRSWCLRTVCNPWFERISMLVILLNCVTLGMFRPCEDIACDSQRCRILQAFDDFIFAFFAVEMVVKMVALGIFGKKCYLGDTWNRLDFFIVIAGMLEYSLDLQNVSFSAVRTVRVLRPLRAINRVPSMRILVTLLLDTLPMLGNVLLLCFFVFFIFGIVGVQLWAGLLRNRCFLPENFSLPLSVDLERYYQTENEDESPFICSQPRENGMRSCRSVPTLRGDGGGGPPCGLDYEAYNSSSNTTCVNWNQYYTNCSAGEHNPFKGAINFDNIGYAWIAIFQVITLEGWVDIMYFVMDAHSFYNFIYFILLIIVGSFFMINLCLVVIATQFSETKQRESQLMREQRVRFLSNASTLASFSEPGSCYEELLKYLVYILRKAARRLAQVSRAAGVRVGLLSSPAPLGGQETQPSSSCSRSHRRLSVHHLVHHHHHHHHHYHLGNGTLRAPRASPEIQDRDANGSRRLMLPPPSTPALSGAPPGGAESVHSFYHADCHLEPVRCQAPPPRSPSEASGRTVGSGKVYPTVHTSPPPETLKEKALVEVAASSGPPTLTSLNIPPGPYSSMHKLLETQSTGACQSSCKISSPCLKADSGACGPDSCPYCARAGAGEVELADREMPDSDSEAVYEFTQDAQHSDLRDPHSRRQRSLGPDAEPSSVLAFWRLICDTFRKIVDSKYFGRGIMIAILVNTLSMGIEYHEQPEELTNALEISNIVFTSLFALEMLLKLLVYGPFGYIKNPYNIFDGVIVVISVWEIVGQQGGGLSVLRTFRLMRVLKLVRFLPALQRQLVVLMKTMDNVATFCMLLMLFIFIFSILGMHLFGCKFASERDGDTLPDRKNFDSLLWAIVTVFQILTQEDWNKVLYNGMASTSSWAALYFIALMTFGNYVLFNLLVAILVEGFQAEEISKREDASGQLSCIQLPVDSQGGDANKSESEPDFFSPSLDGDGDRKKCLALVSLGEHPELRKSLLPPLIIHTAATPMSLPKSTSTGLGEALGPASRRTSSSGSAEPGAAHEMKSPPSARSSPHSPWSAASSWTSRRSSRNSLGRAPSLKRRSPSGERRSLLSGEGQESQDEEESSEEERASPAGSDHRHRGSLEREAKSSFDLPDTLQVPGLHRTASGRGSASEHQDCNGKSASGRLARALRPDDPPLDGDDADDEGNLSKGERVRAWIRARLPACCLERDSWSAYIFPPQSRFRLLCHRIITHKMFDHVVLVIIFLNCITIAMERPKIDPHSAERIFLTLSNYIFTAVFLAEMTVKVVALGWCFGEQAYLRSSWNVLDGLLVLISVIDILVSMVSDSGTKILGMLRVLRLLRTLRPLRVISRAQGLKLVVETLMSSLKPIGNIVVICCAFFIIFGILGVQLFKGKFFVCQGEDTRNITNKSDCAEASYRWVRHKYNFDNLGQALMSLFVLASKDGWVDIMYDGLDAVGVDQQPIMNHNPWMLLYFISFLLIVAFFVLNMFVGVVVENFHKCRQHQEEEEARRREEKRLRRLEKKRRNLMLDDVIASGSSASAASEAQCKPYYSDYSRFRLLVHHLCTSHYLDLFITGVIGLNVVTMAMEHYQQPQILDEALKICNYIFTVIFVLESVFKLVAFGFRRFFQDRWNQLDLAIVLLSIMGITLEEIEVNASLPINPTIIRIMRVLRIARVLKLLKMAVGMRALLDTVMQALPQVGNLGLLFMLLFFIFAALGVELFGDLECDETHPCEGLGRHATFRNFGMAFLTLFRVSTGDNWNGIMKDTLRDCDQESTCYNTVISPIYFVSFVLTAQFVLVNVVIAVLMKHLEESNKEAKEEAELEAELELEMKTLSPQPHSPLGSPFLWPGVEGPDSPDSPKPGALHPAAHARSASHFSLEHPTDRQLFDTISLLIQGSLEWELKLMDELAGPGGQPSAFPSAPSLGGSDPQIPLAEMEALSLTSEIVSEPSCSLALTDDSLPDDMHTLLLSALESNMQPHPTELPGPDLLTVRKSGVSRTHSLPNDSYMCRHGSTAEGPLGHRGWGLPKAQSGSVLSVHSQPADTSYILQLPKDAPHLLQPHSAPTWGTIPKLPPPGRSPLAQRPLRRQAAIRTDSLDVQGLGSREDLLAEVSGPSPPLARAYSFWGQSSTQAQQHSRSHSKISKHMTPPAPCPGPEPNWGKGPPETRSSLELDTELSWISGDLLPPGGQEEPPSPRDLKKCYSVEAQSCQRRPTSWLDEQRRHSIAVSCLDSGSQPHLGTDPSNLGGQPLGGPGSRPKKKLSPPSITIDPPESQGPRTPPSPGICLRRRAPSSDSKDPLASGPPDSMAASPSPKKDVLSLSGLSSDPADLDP

Row | Compound | IC50 (α1H (CaV 3.2)) [nM] | Epilepsy 6 Hz (% Protected) (6 Hz psychomotor seizure; 0.25 hr) [%] | Epilepsy 6 Hz (% Protected) (6 Hz psychomotor seizure; 0.5 hr) [%] | Epilepsy 6 Hz (% Protected) (6 Hz psychomotor seizure; 1 hr) [%] | Epilepsy 6 Hz (% Protected) (6 Hz psychomotor seizure; 2 hr) [%] | Rat SNL tactile allodynia (% antiallodynia) ([2]; 1 hr) [%] | Rat SNL tactile allodynia (% antiallodynia) ([2]; 2 hr) [%] | Rat SNL tactile allodynia (% antiallodynia) ([2]; 4 hr) [%] | also measured
1 | NC1(CC(=O)N2CCC(CC(=O)Nc3cc(C(F)(F)F)cc(C(F)(F)F)c3)CC2)CCCCC1 [Compound 8, 2-(1-(2-(1-aminocyclohexyl)acetyl)piperidin-4-yl)-N-(3,5-bis(trifluoromethyl)phenyl)acetamide] | 110 | 75 | 75 | 67 | 100 | – | – | – | IC50 (α1G (CaV 3.1)): > 10000 nM; Rotarod Assay (% impaired) ([1]; 0.25 hr): 0%; Rotarod Assay (% impaired) ([1]; 0.5 hr): 50%; Rotarod Assay (% impaired) ([1]; 1 hr): 75%; Rotarod Assay (% impaired) ([1]; 2 hr): 100%; Rotarod Assay (% impaired) ([1]; 4 hr): 100%
2 | NCC1(CC(=O)O)CCCCC1 [Gabapentin, gabapentin, reference compound] | – | – | – | – | – | – | – | – | % Antiallodynia (Mean ± SD) ([2]; 1 h): 73 ± 35 %; % Antiallodynia (Mean ± SD) ([2]; 2 h): 90 ± 18 %; % Antiallodynia (Mean ± SD) ([2]; 4 h): 15 ± 8%; anti-allodynia performance compared with first study ([2]; second repetition of the study): performed similarly
3 | NC1(CC(=O)N2CCC(O)(CC(=O)Nc3cc(C(F)(F)F)cc(C(F)(F)F)c3)CC2)CCCCC1 [Compound 54, 2-(1-(2-(1-aminocyclohexyl)acetyl)-4-hydroxypiperidin-4-yl)-N-(3,5-bis(trifluoromethyl)phenyl)acetamide] | 80 | 25 | 75 | 75 | 75 | 41 | 39 | 45 | Epilepsy 6 Hz (% Protected) (6 Hz psychomotor seizure; 4 hr): 100%
4 | O=C(CC1CCN(C(=O)[C@H]2CCCCN2)CC1)Nc1cc(C(F)(F)F)cc(C(F)(F)F)c1 [Compound 74] | – | – | – | – | – | – | – | – | % Spike Change Mean [3]: −53%
5 | NC1(CC(=O)N2CCC(NC(=O)Nc3cc(C(F)(F)F)cc(C(F)(F)F)c3)CC2)CCCCC1 [Compound 75] | – | – | – | – | – | 5 | 3 | 3 | –
